Test results: US10030089B2, “Sugar free, statistical copolymers made from at least three monomers” (REGENTS OF THE UNIVERSITY OF MINNESOTA, priority 2013, dated 2018)

Assay: Phenytoin dissolution control
Type: physicochemical
Description: Probucol and phenytoin concentrations were quantified using a Agilent 1260 Infinity Quaternary HPLC equipped. The HPLC consisted of a reversed-phase EC-C18 column (Poroshell 120, 4.6×50 mm, 2.7 μm, Agilent, USA). The mobile phase was acetonitrile:water 96:4 for probucol and acetonitrile:water 40:60 for phenytoin, and the flow rate was 1.0 mL/min. A 10 μL aliquot of sample was injected, and the column effluent was detected at 241 nm for probucol (eluted at 2.90 min) and 225 nm for phenytoin (eluted at 1.40 min) with a UV detector (1260 Infinity Multiple Wavelength Detector, Agilent). The standard curve linearity was verified from 0.1 to 1000 μg/mL with an r^2 value of at least 0.999.

Concentration (Time (s) 0): 0 ng/mL | Concentration (Time (s) 4): 38000 ng/mL | Concentration (Time (s) 10): 46000 ng/mL | Concentration (Time (s) 20): 45000 ng/mL | Concentration (Time (s) 40): 48000 ng/mL | Concentration (Time (s) 90): 51000 ng/mL | Concentration (Time (s) 180): 45000 ng/mL | Concentration (Time (s) 360): 48000 ng/mL
SMILES: O=C1NC(=O)C(c2ccccc2)(c2ccccc2)N1 [Phenytoin, phenytoin]
